Source: article PMC13607727 (International Journal of Molecular Sciences, 2026)
Where a name gives a salt, the structure may show the parent alone.

Assays:
Type in all cases: cell-based, SARS-CoV-2; human
[1] = target: Delta (B.1.617.2) S-RBD/hACE2 (Severe acute respiratory syndrome coronavirus 2, UniProt P0DTC2, L452R/T478K)
[2] = target: 2019-nCoV S-RBD/hACE2 (Severe acute respiratory syndrome coronavirus 2, UniProt P0DTC2)
[3] = target: Omicron (BA.5) S-RBD/hACE2 (Severe acute respiratory syndrome coronavirus 2, UniProt P0DTC2, D405N/E484A/F486V/G339D/K417N/L452R/N440K/N501Y/Q498R/R408S/S371F/S373P/S375F/S477N/T376A/T478K/Y505H)

| Structure (SMILES) | Effect on S-RBD/hACE2 colocalisation [1] | Effect on S-RBD/hACE2 colocalisation [2] | Effect on S-RBD/hACE2 colocalisation [3] |
| --- | --- | --- | --- |
| CC(OC(=O)OC1CCCCC1)OC(=O)C1=C(CSc2nnnn2CC[NH+](C)C)CSC2C(NC(=O)Cc3csc(N)n3)C(=O)N12 (stereo not drawn) [CTM-HCl, cefotiam hexetil hydrochloride] | showed similar effects against all tested strains | showed similar effects against all tested strains | showed similar effects against all tested strains |
| CCCCCCCCC=CCCCCCCCC(=O)OCC(C[N+](C)(C)C)OC(=O)CCCCCCCC=CCCCCCCCC (stereo not drawn) [DOTAP, DOTAP chloride] | reduced colocalisation to all three S-RBD variants in a concentration-dependent manner | reduced colocalisation to all three S-RBD variants in a concentration-dependent manner | reduced colocalisation to all three S-RBD variants in a concentration-dependent manner |
